Results published in US20230301302A1, “AGROCHEMICAL ADJUVANTS” (Croda International Plc, priority 2020, published 2023).

How the values were obtained:
[1] = tested on: Botrytis cinerea (ATCC 90479); experiment: Adjuvancy: agar growth inhibition assay (colony diameter) with fungicide and/or adjuvant; format: cell-based; details: for inherent fungicidal activity: adjuvant on its own, any of the concentrations tested
From the text: As a measure of the adjuvant activity in relation to the activity of the fungicide alone (e.g., pyraclostrobin) to B. cinerea a value of percent inhibition (adjuvant and fungicide) divided by percent inhibition (fungicide) can be defined, with higher values desired. A value of 1 would therefore represent equal activity of the adjuvant/fungicide combination to the fungicide alone, whereas a value above 1 would represent higher activity with the adjuvant/fungicide combination than the fungicide alone. The actives of the present invention may have a value greater than 1. Preferably greater than 1.5, most preferably greater than 2.
Percent Inhibition—The percent inhibition will be understood to represent the amount the fungicide and/or adjuvant that inhibits the visible growth of the microorganism after 48 hours incubation at 22° C. relative to vehicle treated controls. This is calculated using the following formula:
where: • ØC=diameter of the colony grown on agar supplemented with vehicle (i.e. vehicle treated control), and • ØT=diameter of the colony grown on agar supplemented with fungicide and/or adjuvant formulated in an appropriate vehicle (i.e. solvent such as water C2H5OH, CH3OH, CH3CN, DMSO).
Fold Change—The fold change is a measure of the adjuvant/fungicide combination in inhibiting a microorganism compared to the fungicide alone. This indicates how the adjuvant performs relative to the fungicide alone. This is calculated using the following formula:
where: • INHAF=percent inhibition of fungal growth when treated with fungicide and adjuvant, and • INHF=percent inhibition of fungal growth when treated with fungicide alone.
Botrytis cinerea (ATCC 90479) was cultured on Difco Potato Dextrose Agar (PDA) for 7 days with diurnal UV cycles (12 h UV light and 12 h dark). Spores were harvested in a buffered, sterile saline solution (w/v: 0.9% NaCl with 1% Tween 80) and counted using a haemocytometer. The spore suspension was adjusted to a final concentration of 8.5×10^6 spores/mL to create a standardised inoculum.
To prepare hyphal fragments for adjuvant testing, 8.5×10^4 spores were used to inoculate 10 mL of Difco Potato Dextrose Broth in a 150×25 mm tube. The tube was incubated at 220 RPM, 22° C. for 48 hours. To create hyphal fragments from the culture, the culture was transferred to a 50 mL plastic conical tube containing approximately 20 sterile 5 mm diameter glass beads and vortexed for 5 min. After vortexing the tube was allowed to stand for 5 min to allow large mycelial clumps to settle and then the top layer containing hyphal fragments was removed and used as inocula for growth inhibition assays.
Fungicides and adjuvants were dissolved in methanol and added to molten PDA (˜50° C.) and then the agar was distributed in the wells of 12 well multiwell plates (1 mL/well). The plates were cooled to room temperature and 10 μL of hyphal inoculum was added to the centre of each well. The plates were incubated at 22° C. for 48 hours and then the colony diameter was measured using a digital caliper. The biological growth control consisted of hyphae and vehicle (0.07% methanol), the negative control was media and vehicle (0.07% methanol).
The effect of the adjuvants on fungicidal activity is represented as fold increase in growth inhibition. A value of 1 indicates no increase in fungicidal activity. A value less than 1 indicates reduced fungicidal activity and a value greater than 1 indicates increased fungicidal activity.

[2] = tested on: African green monkey Vero kidney cells (ATCC CCL-81); experiment: Cytotoxicity, alamarBlue cell viability; format: cell-based; details: highest concentration tested (128 μg/mL); 24 hours
Procedure: The cytotoxicity of the diketopiperazines was assessed in vitro against African green monkey Vero kidney cells (ATCC CCL-81). Cells were cultured in 15 mL of Eagle's minimal essential medium (Sigma) supplemented with 10% (v/v) fetal bovine serum (VWR), […] penicillin and 0.1 mg/mL streptomycin in T75 cm^2 cell culture flasks. Cells were incubated for 24 hours at 37° C. in a humidified atmosphere of 5% CO2. Culture medium was refreshed every 2-3 days and cells were not allowed to exceed 80% confluency. At 80% confluency the cells were counted, diluted and plated into 96 well flat bottom cell culture plates (Corning) at a cell density of 10,000 cells per well in 90 μL of growth medium. The plates were incubated at 37° C. in a humidified atmosphere of 5% CO2 for 24 hours to allow cells to adhere to the plate before treatment. After 24 hours, adjuvants were solubilised in DMSO, serially diluted and added to the wells at final concentrations ranging from 1 μg/mL to 128 μg/mL. DMSO was used as the vehicle at a final concentration of 1% in the wells. The plates were incubated at 37° C. in a humidified atmosphere of 5% CO2 for 24 hours after which alamarBlue (Invitrogen) was added to each well at 10% of the culture volume. Fluorescence was monitored using a Thermo Scientific Varioskan Flash plate reader at 560/12 excitation, 590 nm emission both at time zero and 4 hrs after alamarBlue addition. After subtracting the time zero emission 590 nm measurement from the final reading, the inferred percentage of cell viability relative to the vehicle control wells was calculated.

[3] = tested on: butterhead lettuce leaves; experiment: Phytotoxicity on leaves, necrosis score; format: in vivo; details: scale 0 (no necrosis) to 3 (extended necrosis)
Procedure: (§1) Phytotoxicity of the diketopiperazines was assessed on soybean and butterhead lettuce leaves. Soybean seeds were inoculated with Bradyrhizobium japnicum and sown in Levington's M3 compost in 9 cm^2 plastic pots. Soybean plants were given supplementary lighting with SON-T bulbs. Biological control was used to prevent thrip damage (Biolone—Amblyseius cucumeris). The glasshouse temperatures were set to maintain 22° C.±2 during the day and 19° C.±2 at night. Lettuce plants were grown in the same manner without rhizobacteria inoculation. Supplementary lighting was provided by LED bulbs. All plants were maintained as well watered and grown for fourteen days. Test compounds/extracts were resuspended in 2% DMSO ([…]). Synperonic Al1 LQ was used a positive control and UEP-100 as a negative control. Treatments were applied as six 10 μL droplets on the leaf's surface. Phytotoxic tissue damage was assessed 1- and 7-days post-treatment and on a scale of 0 to 3. The phytotoxic effect of the compounds/extract at 1 g/L is represented as a mean phytotoxic necrosis score, where 0=no necrosis; 1=slight spot-like necrosis of the inoculation site; 2=ring-shaped necrosis; 3=extended necrosis.

[4] = tested on: soybean leaves; experiment: Phytotoxicity on leaves, necrosis score; format: in vivo; details: Soy, 1 g/L, scale 0 (no necrosis) to 3 (extended necrosis)
Procedure: as §1

[5] = Pyra 0.0156 μg/mL, adjuvant 128 μg/mL, vs pyraclostrobin alone, 48 h, 22° C.
[6] = Pyra 0.0313 μg/mL, adjuvant 128 μg/mL, vs pyraclostrobin alone, 48 h, 22° C.
[7] = Pyra 0.0625 μg/mL, adjuvant 128 μg/mL, vs pyraclostrobin alone, 48 h, 22° C.

| Structure (SMILES) | Fold Change in Growth Inhibition [1, 5] | Fold Change in Growth Inhibition [1, 6] | Fold Change in Growth Inhibition [1, 7] | Fold Change in Growth Inhibition ([1]; Teb 0.095 μg/mL, adjuvant 25 μg/mL, vs tebuconazole alone) | Fold Change in Growth Inhibition ([1]; Teb 0.095 μg/mL, adjuvant 50 μg/mL, vs tebuconazole alone) | Fold Change in Growth Inhibition ([1]; Teb 0.095 μg/mL, adjuvant 100 μg/mL, vs tebuconazole alone) | Fold Change in Growth Inhibition ([1]; Teb 0.19 μg/mL, adjuvant 25 μg/mL, vs tebuconazole alone) | Fold Change in Growth Inhibition ([1]; Teb 0.19 μg/mL, adjuvant 50 μg/mL, vs tebuconazole alone) | Fold Change in Growth Inhibition ([1]; Teb 0.19 μg/mL, adjuvant 100 μg/mL, vs tebuconazole alone) | inherent fungicidal activity [1] | cytotoxicity against Vero cells [2] | Mean Score (phytotoxic necrosis) ([3]; Day 1, 1 g/L) | Mean Score (phytotoxic necrosis) ([3]; Day 7, 1 g/L) | Mean Score (phytotoxic necrosis) ([3]; Day 7, 1 g/L, listed as DKP (1a)) | Mean Score (phytotoxic necrosis) ([4]; Day 1) | Mean Score (phytotoxic necrosis) ([4]; Day 7) | Mean Score (phytotoxic necrosis) ([4]; Day 7, listed as DKP (1a)) |
| --- | --- | --- | --- | --- | --- | --- | --- | --- | --- | --- | --- | --- | --- | --- | --- | --- | --- |
| CN1C(=O)[C@@H]2CCCN2C(=O)/C1=C/c1ccccc1 [DKP (Ia)] | 2.18 | 3.31 | 1.87 | 1.97 | 1.78 | 2.00 | 4.39 | 1.78 | 2.76 | did not demonstrate any inherent fungicidal activity | did not exhibit any cytotoxicity | 0 | did not exhibit any phytotoxicity | 0 | 0 | did not exhibit any phytotoxicity | 0 |
| O=C1N/C(=C/c2ccccc2)C(=O)N2CCC[C@@H]12 [DKP (Id)] | – | – | – | – | – | – | – | – | – | did not demonstrate any inherent fungicidal activity | did not exhibit any cytotoxicity | – | – | – | – | – | – |
| O=C1N/C(=C\c2ccccc2)C(=O)N2CCC[C@@H]12 [DKP (Ic)] | 1.52 | 3.14 | 1.48 | – | – | – | – | – | – | did not demonstrate any inherent fungicidal activity | did not exhibit any cytotoxicity | – | – | – | – | – | – |
| CN1C(=O)[C@@H]2CCCN2C(=O)/C1=C\c1ccccc1 [DKP (Ib)] | – | – | – | – | – | – | – | – | – | did not demonstrate any inherent fungicidal activity | did not exhibit any cytotoxicity | – | – | – | – | – | – |
